What is called IC50 is the concentration needed to halve the response being measured. As a reminder, the EC50 is the midpoint of the concentration-response curve.

Where only a bound is given, the exact number is not on record here.

Our source for the IC50 and EC50 values is ChEMBL document CHEMBL1131400, “Synthesis and comparative evaluation of two antiviral agents: beta-L-Fd4C and beta-D-Fd4C” (Bioorg Med Chem Lett, 1998).

One assay has as its system B16. Description: In vitro inhibitory activity against growth of HIV infected B16 cell line. Format: functional, cell-based. The note with it: Mus musculus.
The test system of assay [1] is CCRF-CEM. Briefly: In vitro inhibitory activity against growth of HIV infected CEM cell line. The assay is classed as functional, cell-based. The following applies: Homo sapiens.
The subject of assay [2] is CCRF-CEM. Description: In vitro inhibitory activity against growth of HIV infected CEM cells combined with murine CTLL-2T lymphoblast cell line. The assay is classed as functional, cell-based. The following applies: Homo sapiens.
In a further assay the test system is DLD-1. Description: In vitro inhibitory activity against growth of HIV infected DLD-1 cell line. The assay is classed as functional, cell-based. The note with it: Homo sapiens.
In the next assay the test system is Hepatitis B virus. Briefly: In vitro inhibitory activity against proliferation of HBV viral cell. The assay is classed as functional, organism-based.
For assay [3], the system named is Human immunodeficiency virus. Description: In vitro inhibitory activity against proliferation of HIV viral cell. Format: functional, organism-based. The note with it: Human immunodeficiency virus 1.
A further assay concerns HepG2. Briefly: In vitro inhibitory activity against growth of HIV infected HepG2 cell line. The assay is classed as functional, cell-based. The note with it: Homo sapiens.
A further assay relates to MT2. Description: In vitro inhibitory activity against growth of HIV infected MT-2/IIIB cell line. Format: functional, cell-based. The note with it: Homo sapiens.
A further assay deals with Rat1. Briefly: In vitro inhibitory activity against growth of HIV infected Rat-1 cell line. Format: functional, cell-based.

Take `Nc1nc(=O)n([C@H]2C=C[C@@H](CO)O2)cc1F` [DEXELVUCITABINE]: the half-inhibitory concentration (IC50) with B16 was over 200 µM; in the assay on CCRF-CEM [1], 100 µM; with CCRF-CEM [2], 127 µM; with DLD-1, over 200 µM; in the assay on HepG2 it was over 200 µM; with MT2, 100 µM. In addition, the IC50 in the assay with Rat1 is over 200 µM. Moreover, the EC50 in the assay on Hepatitis B virus is under 0.3 µM; in assay [3], 0.2 µM.

For `Nc1nc(=O)n([C@@H]2C=C[C@H](CO)O2)cc1F` [ELVUCITABINE], the IC50 in the assay on B16 was over 200 µM; with CCRF-CEM [1] it was 6.5 µM; in the assay with CCRF-CEM [2], 24 µM; with DLD-1 it was over 200 µM; in the assay on HepG2 it was over 200 µM; in the assay with MT2, 9 µM. Also, the IC50 with Rat1 was over 200 µM. This compound returned an EC50 in [3] of 0.2 µM.
